Some test systems named below: SNB-75 CNS; OVCAR-3 ovarian; HT29 colon; NCI-H23 lung; SF-268 CNS; SK-OV-3 ovarian; COLO 205 colon; ACHN renal; SF-295 CNS; OVCAR-4 ovarian; NCI-H226 lung; A549 NSCLC; 786-0 renal; OVCAR-8 ovarian; SF-539 CNS; SK-MEL-2 melanoma; SNB-19 CNS.
What all share (experiment): inhibition of tumour cell growth, NCI panel, 48 h

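Five concentrations, 48 hours, 96-well plates. TGI marks complete inhibition of growth.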

As for `c1ccc(Nc2nnc(CSc3nc(-c4ccccc4)c(-c4ccccc4)[nH]3)s2)cc1`, the TGI with SNB-75 CNS came out at 85.6 µM; in the assay on OVCAR-3 ovarian, 26.7 µM; with HT29 colon, 30.6 µM; in the assay on NCI-H23 lung, 45.1 µM; with SF-268 CNS, 46.2 µM; with SK-OV-3 ovarian, 56 µM. For the same molecule, the TGI is 25.6 µM in the assay with COLO 205 colon; over 100 µM in the assay with ACHN renal; 36 µM with SF-295 CNS; 87.7 µM in the assay with OVCAR-4 ovarian; 33 µM in the assay with NCI-H226 lung; 73.3 µM in the assay with A549 NSCLC. Also, the TGI was found to be 39.3 µM in the assay with 786-0 renal, 53.8 µM in the assay with OVCAR-8 ovarian, 43.6 µM in the assay with SF-539 CNS and 38.4 µM with SK-MEL-2 melanoma.

Consider `O=P(O)(OCC(O)O)OCC(O)O`, for which the TGI in the assay with SNB-19 CNS, with SNB-75 CNS, with OVCAR-3 ovarian, in the assay on HT29 colon, in the assay on NCI-H23 lung and with SF-268 CNS was over 100 µM each time. For the same molecule, the TGI with SK-OV-3 ovarian, with COLO 205 colon, in the assay on ACHN renal, in the assay on SF-295 CNS, in the assay with A549 NSCLC and with 786-0 renal was over 100 µM each time. Moreover, the TGI with OVCAR-8 ovarian, with SF-539 CNS and with SK-MEL-2 melanoma was over 100 µM in each case.

Regarding `CCOC(C[C@H](O)[C@H]1COC(=S)S1)OCC`, the TGI in the assay with SNB-19 CNS, with OVCAR-3 ovarian, in the assay with HT29 colon, in the assay on NCI-H23 lung, with SF-268 CNS and in the assay with COLO 205 colon was over 100 µM each time. For the same molecule, the TGI in the assay with ACHN renal, with SF-295 CNS, with NCI-H226 lung, in the assay with A549 NSCLC, in the assay with 786-0 renal and with OVCAR-8 ovarian was over 100 µM in each case. The TGI in the assay on SF-539 CNS is over 100 µM.

As for `O=S(=O)([O-])[O-].[Fe+2].c1ccc(/C(=N\Nc2ccccn2)c2ccccn2)cc1`, the TGI is 15.4 µM in the assay on SNB-19 CNS; 14.7 µM with SNB-75 CNS; 2.67 µM in the assay on OVCAR-3 ovarian; 22.7 µM with HT29 colon; 8.68 µM in the assay on NCI-H23 lung; 19.3 µM in the assay with SF-268 CNS. Further, the TGI is 4.25 µM in the assay with SK-OV-3 ovarian; 2.15 µM in the assay with COLO 205 colon; 5.35 µM in the assay with ACHN renal; 8.77 µM with SF-295 CNS; 2.96 µM in the assay with OVCAR-4 ovarian; 4.37 µM with NCI-H226 lung. Moreover, the TGI amounted to 8.82 µM in the assay on A549 NSCLC; 10.7 µM in the assay with 786-0 renal; 10.8 µM in the assay on OVCAR-8 ovarian; 6.42 µM in the assay with SF-539 CNS; 5.74 µM in the assay on SK-MEL-2 melanoma.

For `NS(=O)(=O)c1cc2c(cc1Cl)NC(C(=O)c1cc(=O)c3ccc(O)cc3o1)=NS2(=O)=O`, the TGI in the assay on SNB-19 CNS, in the assay on SNB-75 CNS, in the assay on OVCAR-3 ovarian, in the assay on HT29 colon, in the assay with NCI-H23 lung and in the assay on SF-268 CNS was over 100 µM in each case. The TGI in the assay with SK-OV-3 ovarian, in the assay on COLO 205 colon, in the assay on ACHN renal, in the assay with SF-295 CNS, in the assay on OVCAR-4 ovarian and in the assay on NCI-H226 lung was over 100 µM throughout. In addition, the TGI with A549 NSCLC, in the assay on 786-0 renal, in the assay with OVCAR-8 ovarian, in the assay with SF-539 CNS and in the assay with SK-MEL-2 melanoma was over 100 µM throughout.

`CC(C)=CCCC1(C)C=Cc2c(c(C)cc3c2[nH]c2cc(O)ccc23)O1` (stereo not given): the TGI in the assay with SNB-19 CNS, in the assay on OVCAR-3 ovarian, in the assay on HT29 colon, with SF-268 CNS, with SK-OV-3 ovarian and in the assay with COLO 205 colon was over 25 µM each time. In addition, the TGI in the assay on ACHN renal, in the assay with OVCAR-4 ovarian, in the assay with NCI-H226 lung, in the assay with A549 NSCLC, in the assay with 786-0 renal and in the assay with OVCAR-8 ovarian was over 25 µM each time. In addition, the TGI in the assay with SF-539 CNS and in the assay on SK-MEL-2 melanoma was over 25 µM throughout.

In the case of `COc1cc(/C=C\c2ccccn2)cc(OC)c1OC`, the TGI with SNB-19 CNS, with SNB-75 CNS, with OVCAR-3 ovarian, in the assay on HT29 colon, in the assay on NCI-H23 lung and in the assay with SF-268 CNS was over 100 µM in each case. Besides, the TGI in the assay on COLO 205 colon, in the assay with ACHN renal, with SF-295 CNS, in the assay with OVCAR-4 ovarian, in the assay with NCI-H226 lung and in the assay with A549 NSCLC was over 100 µM in each case. For the same molecule, the TGI in the assay on 786-0 renal, in the assay with OVCAR-8 ovarian and in the assay with SF-539 CNS was over 100 µM each time.

For the molecule `CN(C(=O)C12C3C4C1C1C2C3C41I)C(C)(C)C` (stereo not given), the TGI in the assay on SNB-19 CNS, in the assay on SNB-75 CNS, with OVCAR-3 ovarian, with HT29 colon, with NCI-H23 lung and in the assay with SF-268 CNS was over 100 µM in each case. Moreover, the TGI in the assay with SK-OV-3 ovarian is over 100 µM; with COLO 205 colon, over 100 µM; in the assay with ACHN renal it was over 100 µM; with SF-295 CNS, over 100 µM; in the assay on OVCAR-4 ovarian, over 100 µM; with NCI-H226 lung, over 94.6 µM. Moreover, the TGI with A549 NSCLC, in the assay on 786-0 renal, in the assay with OVCAR-8 ovarian, with SF-539 CNS and in the assay on SK-MEL-2 melanoma was over 100 µM in each case.

`CN(C)c1ccc(/C=C/C=C\C2=CC(=C\C=C/C=C3C=CC(=[N+](C)C)C=C3)/Sc3ccccc32)cc1`: the TGI in the assay on SNB-19 CNS, in the assay with SNB-75 CNS, in the assay on OVCAR-3 ovarian, in the assay on HT29 colon, with SF-268 CNS and in the assay on SK-OV-3 ovarian was over 100 µM in each case. Moreover, the TGI in the assay with COLO 205 colon is 78.3 µM; in the assay with SF-295 CNS it was over 100 µM; with NCI-H226 lung, over 100 µM; in the assay on A549 NSCLC, over 100 µM; with 786-0 renal it was over 100 µM; with OVCAR-8 ovarian, over 100 µM. The TGI in the assay with SF-539 CNS and in the assay with SK-MEL-2 melanoma was over 100 µM each time.

As to `NC(=S)NNC(=O)/C(=C/c1ccc(/C=C(\NC(=O)c2ccccc2)C(=O)NNC(N)=S)cc1)NC(=O)c1ccccc1`, the TGI was over 100 µM in the assay with SNB-19 CNS; 85 µM in the assay with SNB-75 CNS; over 100 µM in the assay on OVCAR-3 ovarian; over 100 µM in the assay on HT29 colon; over 100 µM with NCI-H23 lung; over 100 µM with SF-268 CNS. The TGI in the assay on SK-OV-3 ovarian, in the assay on COLO 205 colon, in the assay with ACHN renal, in the assay with SF-295 CNS, in the assay on OVCAR-4 ovarian and with NCI-H226 lung was over 100 µM each time. Moreover, the TGI with A549 NSCLC, in the assay on 786-0 renal, in the assay on OVCAR-8 ovarian, in the assay on SF-539 CNS and in the assay on SK-MEL-2 melanoma was over 100 µM each time.

For the molecule `CC(=O)OCC(=O)[C@@]1(O)CC[C@H]2[C@@H]3CCC4=CC(=O)[C@H](C)C[C@]4(C)[C@H]3[C@@H](O)C[C@@]21C`, the TGI in the assay on SNB-19 CNS, in the assay with SNB-75 CNS, in the assay with OVCAR-3 ovarian, with HT29 colon, in the assay with NCI-H23 lung and in the assay on SF-268 CNS was over 100 µM throughout. Also, the TGI in the assay with SK-OV-3 ovarian, in the assay on COLO 205 colon, in the assay with ACHN renal, with SF-295 CNS, with OVCAR-4 ovarian and in the assay on NCI-H226 lung was over 100 µM in each case. Besides, the TGI in the assay with A549 NSCLC, with 786-0 renal, with OVCAR-8 ovarian, in the assay on SF-539 CNS and in the assay with SK-MEL-2 melanoma was over 100 µM each time.

For `COc1cc(/C=C/C(=O)c2sc(-n3nc(-c4ccccc4)cc3-c3ccccc3)nc2C)ccc1O`, the TGI in the assay on SNB-75 CNS, in the assay with OVCAR-3 ovarian, in the assay on NCI-H23 lung, with SF-268 CNS, in the assay on SK-OV-3 ovarian and in the assay with COLO 205 colon was over 100 µM in each case. Moreover, the TGI in the assay with ACHN renal, in the assay on SF-295 CNS, in the assay on NCI-H226 lung, with A549 NSCLC, in the assay on 786-0 renal and with OVCAR-8 ovarian was over 100 µM throughout. Moreover, the TGI in the assay with SF-539 CNS and with SK-MEL-2 melanoma was over 100 µM in each case.

In the case of `O=C(NO)c1ccc([N+](=O)[O-])cc1`, the TGI in the assay with SNB-19 CNS is over 100 µM; in the assay with SNB-75 CNS, 93.8 µM; in the assay on OVCAR-3 ovarian, over 100 µM; with HT29 colon it was over 100 µM; with NCI-H23 lung, over 100 µM; with SF-268 CNS, over 100 µM. Also, the TGI in the assay with SK-OV-3 ovarian is over 100 µM; with COLO 205 colon, 94 µM; with SF-295 CNS it was over 100 µM; in the assay with NCI-H226 lung it was over 100 µM; in the assay with A549 NSCLC, over 100 µM; in the assay with 786-0 renal, over 100 µM. In addition, the TGI in the assay with OVCAR-8 ovarian, in the assay with SF-539 CNS and with SK-MEL-2 melanoma was over 100 µM each time.

As for `CCOC(=O)CSc1ccnc(=O)[nH]1`, the TGI in the assay with SNB-19 CNS, with SNB-75 CNS, with OVCAR-3 ovarian, with HT29 colon, in the assay on SF-268 CNS and in the assay with SK-OV-3 ovarian was over 100 µM each time. Further, the TGI in the assay on COLO 205 colon, in the assay on ACHN renal, with SF-295 CNS, with A549 NSCLC, in the assay with 786-0 renal and in the assay on OVCAR-8 ovarian was over 100 µM throughout. Also, the TGI with SF-539 CNS and in the assay on SK-MEL-2 melanoma was over 100 µM each time.

The values are drawn from PubChem BioAssay (NCI).
